How the values were obtained:
Assay in all cases: Eurofins kinase selectivity profile against 380 other human recombinant kinases (Table S2)
Type in all cases: biochemical
[1] = target: T1, 380 human recombinant protein kinases (Homo sapiens, UniProt Q5VT25); details: MRCKα(h), read-out: Inhibition rate
T1 construct: purchased Eurofins (Celle Lévescault)
Method: (§1) Subsequently, to ascertain whether the high potency of compound 11 was specific for MK2, an additional 380 human recombinant protein kinases were screened.
(§2) To assess the impact of various compounds on MK2 kinase activity, we utilized the ADP‐Glo Assay Kit (Promega) following the manufacturer's instructions. Luminescence measurements were taken using a SpectraMax Paradigm reader. The inhibition percentage was calculated using the following formula: ((specific signalDMSO control − specific signal inhibitor)/(specific signalDMSO control)) × 100%. The IC50 values were determined employing dose–response curve fitting via Prism (Graph Pad). Additionally, Eurofins company (Celle Lévescault) conducted the analysis on compound 11’s inhibitory activity against 380 other human recombinant kinases at various concentrations.

[2] = target: T2, 380 human recombinant protein kinases (Homo sapiens, UniProt O60285); details: ARK5(h), read-out: Inhibition rate
T2 construct: purchased Eurofins (Celle Lévescault)
T2 sequence (O60285 1-661): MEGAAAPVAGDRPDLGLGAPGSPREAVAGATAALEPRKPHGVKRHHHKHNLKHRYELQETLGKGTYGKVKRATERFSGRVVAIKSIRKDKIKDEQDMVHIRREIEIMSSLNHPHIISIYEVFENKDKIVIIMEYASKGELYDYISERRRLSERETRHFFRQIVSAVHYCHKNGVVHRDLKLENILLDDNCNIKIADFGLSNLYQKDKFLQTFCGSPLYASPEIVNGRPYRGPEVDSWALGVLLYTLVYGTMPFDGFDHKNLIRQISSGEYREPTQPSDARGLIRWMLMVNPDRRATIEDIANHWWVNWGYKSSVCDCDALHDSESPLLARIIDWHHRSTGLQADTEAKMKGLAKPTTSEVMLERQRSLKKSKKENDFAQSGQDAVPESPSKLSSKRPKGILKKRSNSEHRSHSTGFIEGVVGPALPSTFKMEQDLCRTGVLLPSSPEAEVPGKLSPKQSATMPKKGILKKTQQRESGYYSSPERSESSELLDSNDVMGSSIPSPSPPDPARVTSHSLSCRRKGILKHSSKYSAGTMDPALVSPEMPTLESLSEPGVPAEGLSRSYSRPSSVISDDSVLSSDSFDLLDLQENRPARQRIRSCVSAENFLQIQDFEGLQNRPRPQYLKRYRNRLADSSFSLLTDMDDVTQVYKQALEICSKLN
Method: as §1, §2

[3] = target: T3, 380 human recombinant protein kinases (Homo sapiens, UniProt Q96QT4); details: ChaK1(h), read-out: Inhibition rate
T3 construct: purchased Eurofins (Celle Lévescault)
T3 sequence (Q96QT4 whole entry): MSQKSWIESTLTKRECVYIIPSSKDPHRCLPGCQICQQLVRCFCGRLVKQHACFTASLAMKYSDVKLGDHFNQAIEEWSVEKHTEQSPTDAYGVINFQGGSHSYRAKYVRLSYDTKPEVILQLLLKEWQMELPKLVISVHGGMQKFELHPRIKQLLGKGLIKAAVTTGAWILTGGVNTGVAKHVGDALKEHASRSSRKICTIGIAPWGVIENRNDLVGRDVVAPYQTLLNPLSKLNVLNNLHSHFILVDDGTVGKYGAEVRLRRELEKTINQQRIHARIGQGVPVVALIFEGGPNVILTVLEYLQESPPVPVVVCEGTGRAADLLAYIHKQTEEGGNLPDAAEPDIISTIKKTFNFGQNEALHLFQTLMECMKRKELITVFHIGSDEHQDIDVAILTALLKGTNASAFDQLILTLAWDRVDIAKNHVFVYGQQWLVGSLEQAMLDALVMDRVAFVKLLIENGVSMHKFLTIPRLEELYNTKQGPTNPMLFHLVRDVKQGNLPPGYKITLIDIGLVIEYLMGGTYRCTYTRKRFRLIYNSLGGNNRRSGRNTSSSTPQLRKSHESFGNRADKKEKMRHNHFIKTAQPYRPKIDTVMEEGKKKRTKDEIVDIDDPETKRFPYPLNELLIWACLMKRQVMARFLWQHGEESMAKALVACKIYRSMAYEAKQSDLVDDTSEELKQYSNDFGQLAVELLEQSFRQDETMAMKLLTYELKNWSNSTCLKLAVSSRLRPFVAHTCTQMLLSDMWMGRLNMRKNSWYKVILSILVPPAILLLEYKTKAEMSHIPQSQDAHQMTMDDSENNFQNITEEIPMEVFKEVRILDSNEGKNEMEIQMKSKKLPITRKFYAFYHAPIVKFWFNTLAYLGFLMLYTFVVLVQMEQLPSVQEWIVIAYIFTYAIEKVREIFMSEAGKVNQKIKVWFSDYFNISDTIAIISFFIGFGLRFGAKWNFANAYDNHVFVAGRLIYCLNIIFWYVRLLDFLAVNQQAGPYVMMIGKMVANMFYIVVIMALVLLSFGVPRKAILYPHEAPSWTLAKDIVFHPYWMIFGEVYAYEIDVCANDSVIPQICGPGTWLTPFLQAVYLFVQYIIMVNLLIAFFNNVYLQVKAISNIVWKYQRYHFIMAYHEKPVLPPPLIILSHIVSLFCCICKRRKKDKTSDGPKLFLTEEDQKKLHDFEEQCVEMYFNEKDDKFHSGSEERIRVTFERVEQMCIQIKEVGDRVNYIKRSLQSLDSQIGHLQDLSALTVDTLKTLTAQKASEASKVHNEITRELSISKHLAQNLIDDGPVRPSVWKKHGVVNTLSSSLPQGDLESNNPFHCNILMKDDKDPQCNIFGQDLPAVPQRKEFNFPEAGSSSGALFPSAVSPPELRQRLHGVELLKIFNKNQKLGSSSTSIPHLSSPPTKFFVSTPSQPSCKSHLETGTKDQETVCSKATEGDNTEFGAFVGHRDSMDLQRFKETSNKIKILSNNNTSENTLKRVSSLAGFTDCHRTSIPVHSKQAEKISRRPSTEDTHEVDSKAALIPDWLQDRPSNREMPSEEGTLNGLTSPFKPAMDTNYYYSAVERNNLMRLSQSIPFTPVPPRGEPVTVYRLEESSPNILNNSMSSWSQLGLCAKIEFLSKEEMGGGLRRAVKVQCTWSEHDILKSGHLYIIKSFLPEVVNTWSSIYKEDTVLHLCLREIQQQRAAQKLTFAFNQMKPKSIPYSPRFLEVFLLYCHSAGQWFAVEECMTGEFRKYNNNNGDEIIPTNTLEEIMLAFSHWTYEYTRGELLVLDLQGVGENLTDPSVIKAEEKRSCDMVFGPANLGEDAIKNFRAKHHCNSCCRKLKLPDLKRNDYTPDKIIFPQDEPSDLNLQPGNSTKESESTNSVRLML
Method: as §1, §2

[4] = target: T4, 380 human recombinant protein kinases (Homo sapiens, UniProt P53350); details: Plk1(h), read-out: Inhibition rate
T4 construct: purchased Eurofins (Celle Lévescault)
T4 sequence (P53350 whole entry): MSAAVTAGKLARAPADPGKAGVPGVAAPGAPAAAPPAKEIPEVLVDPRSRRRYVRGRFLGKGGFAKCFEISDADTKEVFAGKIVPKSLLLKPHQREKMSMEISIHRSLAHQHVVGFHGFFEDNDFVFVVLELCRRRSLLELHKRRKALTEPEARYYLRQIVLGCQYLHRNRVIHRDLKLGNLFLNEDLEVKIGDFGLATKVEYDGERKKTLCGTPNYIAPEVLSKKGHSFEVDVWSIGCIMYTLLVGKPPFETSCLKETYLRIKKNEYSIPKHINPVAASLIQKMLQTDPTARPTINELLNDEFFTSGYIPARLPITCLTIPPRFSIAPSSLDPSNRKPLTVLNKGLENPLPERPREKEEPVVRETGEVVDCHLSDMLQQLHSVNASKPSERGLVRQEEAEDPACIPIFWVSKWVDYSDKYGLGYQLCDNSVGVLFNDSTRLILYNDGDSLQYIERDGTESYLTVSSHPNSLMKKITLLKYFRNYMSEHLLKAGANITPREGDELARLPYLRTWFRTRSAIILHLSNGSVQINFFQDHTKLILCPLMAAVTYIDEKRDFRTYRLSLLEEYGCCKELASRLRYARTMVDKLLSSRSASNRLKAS
Method: as §1, §2

[5] = target: T5, 380 human recombinant protein kinases (Homo sapiens, UniProt Q86Y07); details: VRK2(h), read-out: Inhibition rate (%)
T5 construct: purchased Eurofins (Celle Lévescault)
T5 sequence (Q86Y07 whole entry): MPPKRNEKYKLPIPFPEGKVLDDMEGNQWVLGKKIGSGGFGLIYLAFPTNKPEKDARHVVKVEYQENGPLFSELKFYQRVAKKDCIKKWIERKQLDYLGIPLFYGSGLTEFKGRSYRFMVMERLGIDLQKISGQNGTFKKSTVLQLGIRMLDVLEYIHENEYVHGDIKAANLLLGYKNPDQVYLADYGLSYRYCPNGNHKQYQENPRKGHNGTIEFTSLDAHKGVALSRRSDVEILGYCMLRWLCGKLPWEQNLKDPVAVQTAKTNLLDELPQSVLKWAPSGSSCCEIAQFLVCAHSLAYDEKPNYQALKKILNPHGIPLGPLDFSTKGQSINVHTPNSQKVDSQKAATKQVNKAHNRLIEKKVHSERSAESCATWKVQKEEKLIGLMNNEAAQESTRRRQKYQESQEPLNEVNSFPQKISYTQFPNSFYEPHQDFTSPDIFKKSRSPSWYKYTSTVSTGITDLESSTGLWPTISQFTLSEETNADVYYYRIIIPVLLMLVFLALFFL
Method: as §1, §2

[6] = target: T6, 380 human recombinant protein kinases (Homo sapiens, UniProt Q04912); details: Ron(h), read-out: Inhibition rate
T6 construct: purchased Eurofins (Celle Lévescault)
T6 sequence (Q04912 25-1400): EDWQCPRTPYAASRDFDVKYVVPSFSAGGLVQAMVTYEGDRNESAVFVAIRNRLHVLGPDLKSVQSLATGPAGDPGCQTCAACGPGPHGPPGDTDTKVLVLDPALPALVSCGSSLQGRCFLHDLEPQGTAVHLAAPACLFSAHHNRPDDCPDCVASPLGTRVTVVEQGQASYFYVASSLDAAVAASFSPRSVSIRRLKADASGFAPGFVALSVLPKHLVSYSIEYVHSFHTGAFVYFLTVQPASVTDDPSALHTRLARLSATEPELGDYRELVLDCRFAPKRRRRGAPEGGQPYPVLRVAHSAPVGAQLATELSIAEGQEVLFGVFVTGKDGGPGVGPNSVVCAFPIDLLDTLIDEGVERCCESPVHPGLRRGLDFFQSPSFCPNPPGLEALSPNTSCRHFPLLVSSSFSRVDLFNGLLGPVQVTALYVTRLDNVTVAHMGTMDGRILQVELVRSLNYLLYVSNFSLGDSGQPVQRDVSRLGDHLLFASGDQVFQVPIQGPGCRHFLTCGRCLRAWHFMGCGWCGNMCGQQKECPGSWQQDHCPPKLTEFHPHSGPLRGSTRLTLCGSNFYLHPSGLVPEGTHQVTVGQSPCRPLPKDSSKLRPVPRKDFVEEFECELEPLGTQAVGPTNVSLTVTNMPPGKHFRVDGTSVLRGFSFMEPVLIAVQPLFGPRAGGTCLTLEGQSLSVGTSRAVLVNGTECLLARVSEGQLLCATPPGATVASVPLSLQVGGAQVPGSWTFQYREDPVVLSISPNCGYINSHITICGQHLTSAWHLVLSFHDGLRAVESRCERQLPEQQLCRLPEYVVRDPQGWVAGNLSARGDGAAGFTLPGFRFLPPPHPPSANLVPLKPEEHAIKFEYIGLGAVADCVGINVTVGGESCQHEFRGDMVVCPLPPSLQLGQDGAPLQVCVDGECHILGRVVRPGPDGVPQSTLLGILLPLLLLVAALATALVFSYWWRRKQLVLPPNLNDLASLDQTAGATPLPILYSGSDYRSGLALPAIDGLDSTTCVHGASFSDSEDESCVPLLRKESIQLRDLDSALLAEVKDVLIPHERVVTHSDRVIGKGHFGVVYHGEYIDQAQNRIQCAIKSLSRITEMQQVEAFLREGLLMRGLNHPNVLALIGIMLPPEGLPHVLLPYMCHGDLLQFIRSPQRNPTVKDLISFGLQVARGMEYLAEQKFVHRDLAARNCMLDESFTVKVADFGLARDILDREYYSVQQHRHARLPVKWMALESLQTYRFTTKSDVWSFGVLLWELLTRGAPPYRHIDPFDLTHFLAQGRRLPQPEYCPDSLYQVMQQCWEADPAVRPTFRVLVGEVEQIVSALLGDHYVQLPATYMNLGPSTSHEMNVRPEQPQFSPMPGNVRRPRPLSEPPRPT
Method: as §1, §2

[7] = target: T7, 380 human recombinant protein kinases (Homo sapiens, UniProt P29323); details: EphB2(h), read-out: Inhibition rate
T7 construct: purchased Eurofins (Celle Lévescault)
T7 sequence (P29323 19-1055): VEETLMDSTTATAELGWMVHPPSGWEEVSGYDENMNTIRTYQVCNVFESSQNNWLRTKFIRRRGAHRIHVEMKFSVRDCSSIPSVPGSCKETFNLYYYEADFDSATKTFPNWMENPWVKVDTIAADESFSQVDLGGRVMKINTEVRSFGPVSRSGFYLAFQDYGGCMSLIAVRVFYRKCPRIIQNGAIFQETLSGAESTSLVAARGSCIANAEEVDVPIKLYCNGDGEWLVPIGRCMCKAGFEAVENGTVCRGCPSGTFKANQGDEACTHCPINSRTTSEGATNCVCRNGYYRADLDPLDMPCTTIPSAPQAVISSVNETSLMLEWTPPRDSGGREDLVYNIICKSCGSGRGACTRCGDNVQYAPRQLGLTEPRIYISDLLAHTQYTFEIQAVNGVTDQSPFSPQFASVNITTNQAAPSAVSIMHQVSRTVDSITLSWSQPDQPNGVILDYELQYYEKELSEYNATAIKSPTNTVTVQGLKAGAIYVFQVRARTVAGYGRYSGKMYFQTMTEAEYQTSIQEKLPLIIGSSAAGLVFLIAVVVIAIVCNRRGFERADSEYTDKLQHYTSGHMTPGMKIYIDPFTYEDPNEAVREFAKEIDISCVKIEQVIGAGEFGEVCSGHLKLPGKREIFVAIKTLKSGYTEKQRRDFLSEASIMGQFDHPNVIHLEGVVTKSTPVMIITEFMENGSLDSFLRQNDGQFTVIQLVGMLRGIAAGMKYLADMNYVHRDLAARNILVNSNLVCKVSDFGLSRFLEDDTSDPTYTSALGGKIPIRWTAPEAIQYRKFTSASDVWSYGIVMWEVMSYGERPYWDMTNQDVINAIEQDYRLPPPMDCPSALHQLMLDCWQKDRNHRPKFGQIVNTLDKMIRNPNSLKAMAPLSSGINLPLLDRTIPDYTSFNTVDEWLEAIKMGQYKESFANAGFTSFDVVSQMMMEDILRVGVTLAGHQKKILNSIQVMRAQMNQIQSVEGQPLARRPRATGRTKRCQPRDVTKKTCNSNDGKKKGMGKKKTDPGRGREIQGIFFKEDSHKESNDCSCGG
Method: as §1, §2

[8] = target: T8, 380 human recombinant protein kinases (Homo sapiens, UniProt Q06187); details: BTK(h), read-out: Inhibition rate
T8 construct: purchased Eurofins (Celle Lévescault)
T8 sequence (Q06187 whole entry): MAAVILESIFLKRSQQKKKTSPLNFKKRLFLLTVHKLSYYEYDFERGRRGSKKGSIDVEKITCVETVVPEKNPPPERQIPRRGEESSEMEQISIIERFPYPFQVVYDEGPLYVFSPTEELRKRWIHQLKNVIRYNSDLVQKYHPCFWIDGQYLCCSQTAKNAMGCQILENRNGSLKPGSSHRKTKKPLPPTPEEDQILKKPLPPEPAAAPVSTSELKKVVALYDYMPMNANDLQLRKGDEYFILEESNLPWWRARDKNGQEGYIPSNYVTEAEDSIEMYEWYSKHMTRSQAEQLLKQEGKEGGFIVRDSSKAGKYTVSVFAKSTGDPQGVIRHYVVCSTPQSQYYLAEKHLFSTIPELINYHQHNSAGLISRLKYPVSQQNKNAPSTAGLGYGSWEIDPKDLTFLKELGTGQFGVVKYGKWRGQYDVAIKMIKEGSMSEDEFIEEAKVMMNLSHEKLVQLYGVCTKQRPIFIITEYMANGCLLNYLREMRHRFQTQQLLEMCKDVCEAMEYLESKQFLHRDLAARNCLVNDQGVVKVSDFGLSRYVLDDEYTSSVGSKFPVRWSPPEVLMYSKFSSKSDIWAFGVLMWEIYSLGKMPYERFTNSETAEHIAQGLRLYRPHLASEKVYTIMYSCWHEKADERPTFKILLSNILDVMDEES
Method: as §1, §2

How did the inhibition at 0.01 µM ([1]; 10 nM) turn out when `C=CC(=O)Nc1cc(-c2cc(-c3cc4c([nH]3)CCNC4=O)ccn2)ccc1OC(F)(F)F` [compound 11] was run?
The inhibition at 0.01 µM was -5%.

And the inhibition at 0.1 µM ([1]; 100 nM)?
Its inhibition at 0.1 µM is -3%.

What about the inhibition at 1 µM ([1]; 1000 nM) of the same compound?
Its inhibition at 1 µM is -3%.

And the inhibition at 0.01 µM ([2]; 10 nM)?
The inhibition at 0.01 µM was -2%.

What about the inhibition at 0.1 µM ([2]; 100 nM) of the same compound?
Its inhibition at 0.1 µM is 14%.

What about the inhibition at 1 µM ([2]; 1000 nM) of the same compound?
The inhibition at 1 µM was 28%.

What about the inhibition at 0.01 µM ([3]; 10 nM) of the same compound?
Its inhibition at 0.01 µM is -7%.

What about the inhibition at 0.1 µM ([3]; 100 nM) of the same compound?
The inhibition at 0.1 µM was 1%.

And the inhibition at 1 µM ([3]; 1000 nM)?
Its inhibition at 1 µM is -5%.

And the inhibition at 0.01 µM ([4]; 10 nM)?
The inhibition at 0.01 µM was 13%.

And the inhibition at 0.1 µM ([4]; 100 nM)?
Its inhibition at 0.1 µM is 15%.

And the inhibition at 1 µM ([4]; 1000 nM)?
Its inhibition at 1 µM is 13%.

And the inhibition at 0.01 µM ([5]; 10 nM)?
The inhibition at 0.01 µM was 7%.

What about the inhibition at 0.1 µM ([5]; 100 nM) of the same compound?
Its inhibition at 0.1 µM is 8%.

What about the inhibition at 1 µM ([5]; 1000 nM) of the same compound?
Its inhibition at 1 µM is 7%.

And the inhibition at 0.01 µM ([6]; 10 nM)?
The inhibition at 0.01 µM was -4%.

What about the inhibition at 0.1 µM ([6]; 100 nM) of the same compound?
The inhibition at 0.1 µM was 26%.

What about the inhibition at 1 µM ([6]; 1000 nM) of the same compound?
Its inhibition at 1 µM is 77%.

What about the inhibition at 0.01 µM ([7]; 10 nM) of the same compound?
Its inhibition at 0.01 µM is 5%.

And the inhibition at 0.1 µM ([7]; 100 nM)?
The inhibition at 0.1 µM was -2%.

What about the inhibition at 1 µM ([7]; 1000 nM) of the same compound?
The inhibition at 1 µM was -14%.

What about the inhibition at 0.01 µM ([8]; 10 nM) of the same compound?
Its inhibition at 0.01 µM is -4%.

What about the inhibition at 0.1 µM ([8]; 100 nM) of the same compound?
Its inhibition at 0.1 µM is 10%.

What about the inhibition at 1 µM ([8]; 1000 nM) of the same compound?
Its inhibition at 1 µM is 17%.

Reference: publication PMC11233931, “Remodeling tumor‐associated macrophage for anti‐cancer effects by rational design of irreversible inhibition of mitogen‐activated protein kinase‐activated protein kinase 2” (MedComm, 2024)
